The subject of data set [1] is Propionic Acidemia (PA) primary fibroblasts GM00371. Nature of the data set: Mitochondrial respiration, XFe96 Extracellular Flux Analyzer (OCR/ECAR), PA fibroblasts GM00371. Type of data set: cell-based. The settings on record: Homo sapiens, Fibroblast, read-out: Increase in Maximal Respiratory Capacity AUC; for activation at 50 µM: assay condition C (10 mM glucose, 10% FBS).

The next data set concerns HepG2 cells. Kind of data set: Glucose uptake (Glucose Uptake-Glo). Type of data set: cell-based. The settings on record: Homo sapiens, 10 uM, read-out: % increase in Glucose Uptake.
The subject of data set [2] is Venular Endothelial cells (HUVEC) (3C system). Nature of the data set: BioMAP 3C system (IL-1β, TNFα, IFNγ). Type of data set: cell-based, human. The settings on record: 10 uM; procedure of Example 825. As for the experimental part: The BioMAP platform (BioMAP® Diversity PLUS® Panel from Eurofins) is an in vitro phenotypic profiling technology that screened the compounds of the present disclosure (hereafter indicated as test agents) in human primary cell-based systems modelling complex tissue and disease states. The BioMAP assays were performed using the Eurofin's BioMAP Technology Platform as (see references 1 to 13 in the example 824 section) to model different diseases on primary cell-based model systems. These systems consisted of either single primary cell types or co-culture cells. Adherent cell types were cultured or co-cultured in 96 or 384-well plates until confluence followed by the addition of compounds prepared in DMSO at a final concentration of ≤0.1%. In each cell-based system, primary cells from heathy donors (2-6 donors) were pooled and treated with compounds at 1 and 10 μM dose 1h prior to stimulation and remain in culture as indicated in Example 825, Example 826, Example 827, Example 828, Example 829, Example 830, Example 831, Example 832, Example 833, Example 834, Example 835, Example 836 and Example 837. For on the BioMAP® Diversity PLUS® Panel, please see the following references, which are incorporate herein.
Following the general procedure as described in Example 824, Venular Endothelial cells (HUVEC) (3C system) were treated with IL-1β, TNFα, IFNγ for 24h to model Th1 driven cardiovascular and chronic inflammation diseases in the presence or absence of the compounds. Biomarker read out were; Tissue Factor, ICAM-1, E-selectin, uPAR (CD87), IL-8, MIG, HLA-DR, proliferation and SRB (Sulfo-rhodamine i.e. staining for protein content).

The subject of data set [3] is Venular Endothelial cells (HUVEC) (4H system). Nature of the data set: BioMAP 4H system (IL-4 and histamine). Type of data set: cell-based, human. The settings on record: procedure of Example 826; for inhibition at 1 µM: Homo sapiens, HUVEC, 24 h, read-out: % decrease in VEGFRII.
Data set [4] concerns Peripheral blood mononuclear cells co-cultured with venular endothelial cells (HUVEC) (LPS system). Nature of the data set: BioMAP LPS system. Type of data set: cell-based, human. The settings on record: procedure of Example 827; for inhibition at 1 µM / activation at 10 µM / inhibition at 10 µM: Homo sapiens, HUVEC, 24 h; for activation at 10 µM: read-out: % increase in sTNFα.

The test system of data set [5] is Bronchial epithelial cells co-cultured with dermal fibroblast (BF4T system). Kind of data set: BioMAP BF4T system (TNFα and IL-4). The format is cell-based, human. The settings on record: procedure of Example 830.
For data set [6], the system named is Bronchial epithelial cells (BE3C system). Nature of the data set: BioMAP BE3C system (IL-1β, TNFα, IFNγ). The settings on record: 10 uM, procedure of Example 831; for inhibition at 10 µM: Homo sapiens, Epithelial cell, 24 h, read-out: % decrease in MMP-1. The format is cell-based, human.
Data set [7] concerns Coronary artery smooth muscle cells (CASM3C system). Kind of data set: BioMAP CASM3C system (IL-1β, TNFα, IFNγ). Type of data set: cell-based, human. The settings on record: for inhibition at 10 µM: Homo sapiens, 24 h, read-out: % decrease in Thrombomodulin.
Data set [8] deals with Dermal fibroblasts (HDF3CGF system). Nature of the data set: BioMAP HDF3CGF system (IL-1β, TNFα, IFNγ, EGF, bFGF, PDGF-BB). The format is cell-based, human.
Data set [9] has as its system Peripheral blood mononuclear cells co-cultured with B-cells (BT system). Kind of data set: cells. The settings on record: Homo sapiens, 72 h.
Data set [10] shares this test system.
The subject of data set [11] is primary culture of rat embryo mesencephalic cells (microglia, astrocytes and neurons) exposed to LPS. Kind of data set: Neuroprotective effect on damage induced by LPS on culture of mesencephalic neurons (NO, TNF-α, IL-1β, TH positive neurons). The format is cell-based. The settings on record: 50 uM, after 5 days of LPS exposure; for inhibition at 50 µM: Rattus norvegicus, Neuron, 120 h, read-out: % reversion of TH positive neurons. As for the experimental part: Drug preparation. […] The stock solutions will be prepared 1000× the concentration in 100% DMSO. The final concentration of the vehicle (DMSO) is set at 0.1%.
Test animals. Pregnant Wistar rats (Janvier; France) are used for the study. They are group-housed and maintained in a room with controlled temperature (21-22° C.) and a reversed light-dark cycle (12h/12h; lights on: 17:30-05:30; lights off: 05:30-17:30) with food and water available ad libitum.
The protocol is performed in 3 independent cultures. For each culture, each condition is performed in sextuplicate.
Female rat of 15 days gestation is killed by cervical dislocation. Fetuses are removed from the uterus and their brains are harvested and placed in ice-cold medium (Leibovitz's L15 medium, Gibco). Only ventral mesencephalic flexure is used for the cell preparations. The midbrain is dissociated by trypsinization. The reaction is stopped, and the suspension is triturated and centrifuged. The pellet of dissociated cells is resuspended in culture medium consisted of DMEM-F12 (Gibco), containing 10% FBS (ATCC), 10% Horse serum (Gibco) and 2 mM L-glutamine (Gibco). Viable cells are counted and seeded on 96-well plates, precoated with poly-L-lysine. Cells are maintained in a humidified incubator at 37° C. in 5% CO2-95% air atmosphere. Half of the medium is changed on day 2 and day 5.
Treatment. On day 7, culture media are removed and replaced by new medium consisting of DMEM-F12 (Gibco) supplemented with 2% FBS (ATCC), 2% Horse serum (Gibco) and 2 mM L-glutamine (Gibco) and containing vehicle or test substances. After 1-hour exposure, LPS at 10 ng/ml is added and exposure further continued for 24 hours or 5 days period.
Inflammatory response measurement and neuronal death evaluation. NO production is measured in the media 24h and 5 days after LPS exposure using the Griess reagent kit (Molecular Probes). The Griess reagent Assay is a colorimetric reaction assay which measures the conversion of a sulfanilic salt into an azo dye product by nitrite. Visible wavelength absorbance data is collected using a 96-well plate reader at 570 nm (Multiskan EX, Thermo Fisher, France). IL-1β and TNF-α release are measured in the media 24h after LPS exposure using the ELISA development kit (PeproTech). The ELISA plate, previously coated with anti-IL-1β or anti-TNF-αantibody at 1 μg/ml, is incubated 1h with PBS containing 1% of BSA (bovine serum albumin). After washing four times with PBS containing 0.05% of Tween-20, the plate is successively incubated 2h with supernatant, 2h with biotinylated antibody at 0.5 μg/ml in PBS containing 0.1% of BSA and 0.05% of Tween-20, 45 min with Avidin-HRP conjugated at 1/2000 and 30 min with color ABTS substrate (Sigma). Visible wavelength absorbance data is collected using a 96-well plate reader at 405 nm with wavelength correction set at 650 nm (Multiskan EX, Thermo Fisher, France).
Immunodetection of tyrosine hydroxylase positive neurons. On day 12 (5 days after LPS exposure), cultures are fixed 30 min at 4° C. with paraformaldehyde in PBS (4%, Sigma). Then, cells are successively permeabilized with 0.1% Triton X100 for 30 min, saturated with PBS containing 3% of BSA (bovine serum albumin) and are incubated 2h with anti-tyrosine hydroxylase antibody (Sigma, 1:10000; clone TH-2) at 1/10 000 in PBS containing 0.5% of BSA. Cells are washed three times with PBS containing 0.5% of BSA, and they are incubated 1h with goat anti mouse antibody coupled with AF488 (Invitrogen A11001) diluted at 1/1000 in PBS containing 0.5% of BSA. Finally, nuclei are stained with DAPI at 1/1000 in PBS containing 0.5% of BSA. After rinsing with PBS, the plate is visualized and examined with Cell Insight HCS (Thermo Scientific) to determine the number of tyrosine hydroxylase positive cells per well.
Statistical Analysis. The drug-induced effect on NO and cytokines is calculated by setting the response of the LPS-stimulated control as 100%. […]

Where [12] appears, read: 10 uM, procedure of Example 833.
Where [13] appears, read: 10 uM, procedure of Example 829.

Read-outs that look alike come from different tables or passages of the source.

Turning to `COC(=O)CCC(=O)SCCNC(=O)CCNC(=O)[C@H](O)C(C)(C)COC(=O)OCC[N+](C)(C)C` [Compound 117, [2-([[(3R)-3-hydroxy-3-[[2-([2-[(4-methoxy-4-oxobutanoyl)sulfanyl]ethyl]carbamoyl)ethyl]carbamoyl]-2,2-dimethylpropoxy]carbonyl]oxy)ethyl]trimethylazanium], the activation at 50 µM in [1] is ≥ 10%. Besides, the activation at 10 µM is ≥ 30% in the data set on HepG2 cells; ≥ 20% in data set [4]; ≥ 10% in data set [8] (Homo sapiens, Fibroblast, 72 h, 10 uM, read-out: % increase in 72 Hour Proliferation); ≥ 10% in data set [9] (read-out: % increase in sIL-6). Moreover, in data set [2], the “% increase in Proliferation (HUVEC)” value is ≥10%. For the same molecule, the inhibition at 1 µM was ≥ 10% in data set [3]; ≥ 10% in [4] (1 uM, read-out: % decrease in sPGE2); ≥ 20% in data set [9] (read-out: % decrease in sIL-17). Moreover, the “% increase in IL-1α” value in data set [4] (1 uM) is ≥10%. Also, the “% increase in Tissue Factor” value in [4] (1 uM) is given as ≥10%. Besides, the “% decrease in tPA” value in data set [5] (10 uM) and in data set [6] was ≥10% each time. Moreover, the inhibition at 10 µM in data set [6] and in [7] (10 uM) was ≥ 10% throughout. For the same molecule, the “% decrease in CXCL9” value in [7] (10 uM) is ≥10%.

On to `CC(=O)OCCCC(=O)SCCNC(=O)CCNC(=O)[C@H](O)C(C)(C)CO` [Compound 1305, 4-[(2-[3-[(2R)-2,4-dihydroxy-3,3-dimethylbutanamido]propanamido]ethyl)sulfanyl]-4-oxobutyl acetate], for which the activation at 50 µM in [1] was ≥ 10%. Also, the activation at 10 µM is ≥ 10% in [1] (assay condition D (1 mM glucose, 10% FBS), 10 μM); ≥ 10% in the data set on HepG2 cells; ≥ 20% in data set [4]. The “% increase in Proliferation (HUVEC)” value in [2] is given as ≥20%. Also, the “% decrease in MCP-1” value in data set [3] (10 uM) is ≥10%. Further, the inhibition at 1 µM in [3] is ≥ 10%; in data set [4] (1 uM, read-out: % decrease in IL-8) it was ≥ 10%; in data set [4] (1 uM, read-out: % decrease in TissueFactor), ≥ 10%; in data set [8] (Homo sapiens, Fibroblast, 24 h, 1 uM, read-out: % decrease in Collagen III), ≥ 10%. In addition, the inhibition at 10 µM in data set [6] is ≥ 10%; in data set [7] (10 uM) it was ≥ 20%; in [9] (read-out: % decrease in sIL-17), ≥ 20%. Besides, the “% decrease in M-CSF” value in data set [7] (1 uM, procedure of Example 832) is reported as ≥10%. The “% decrease in Proliferation” value in [7] (1 uM, procedure of Example 832) is ≥10%. In addition, the “% decrease in VCAM-1” value in [7] (1 uM, procedure of Example 832) was ≥10%. In addition, the “% decrease in CXCL9” value in [7] (10 uM) is listed as ≥10%. In addition, in [7] (10 uM), the “% decrease in Tissue Factor” value is listed as ≥10%. Besides, the “% decrease in CXCL11/I-TAC” value in data set [8] (setting [12]) is on record as ≥10%. The “% increase in B-cell Proliferation” value in data set [10] (setting [13]) is listed as ≥10%.

With `COC(=O)/C=C/C(=O)SCCNC(=O)CCNC(=O)[C@H](O)C(C)(C)COC(C)=O` [Compound 145, methyl (2E)-4-[(2-[3-[(2R)-4-(acetyloxy)-2-hydroxy-3,3-dimethylbutanamido]propanamido]ethyl)sulfanyl]-4-oxobut-2-enoate], the values for the activation at 10 µM (in the data set with HepG2 cells; in [4]) were ≥ 30% and ≥ 10%, respectively. For the same molecule, the “% decrease in IL-8” value in data set [2] was ≥10%. In addition, the inhibition at 10 µM in data set [4] (read-out: % decrease in IL-1α) is ≥ 10%; in [4] (read-out: % decrease in IL-8), ≥ 10%; in [8] (Homo sapiens, Fibroblast, 24 h, 10 uM, read-out: % decrease in Collagen III) it was ≥ 10%. In addition, the “% increase in tPA” value in data set [5] (10 uM) is recorded as ≥10%. In addition, in [5] (Homo sapiens, 24 h, 1 uM, read-out: % increase in VCAM-1), the activation at 1 µM is ≥ 10%. Further, in [7] (1 uM, procedure of Example 832), the “% decrease in LDLR” value is on record as ≥10%. Also, the “% decrease in HLA-DR” value in data set [7] (10 uM) is recorded as ≥10%. Further, the “% decrease in Collagen I” value in data set [8] (setting [12]) is listed as ≥10%. Moreover, the “% decrease in NO release relative to LPS alone” value in data set [11] is on record as ≥35%. In addition, the inhibition at 50 µM in data set [11] (list at threshold 15%) is ≥ 15%; in data set [11] (list at threshold 50%), ≥ 50%. Moreover, the “% decrease in B-cell proliferation” value in data set [10] (1 uM, procedure of Example 829) is given as ≥20%. Also, the “% decrease in sTNFα” value in [10] (setting [13]) is ≥10%. In addition, in data set [10] (human, 72 h, 10 µM), the “% decrease in PBMC cytotoxicity” value is reported as ≥20%. Besides, the inhibition at 1 µM in data set [9] (read-out: % decrease in sIL-17) was ≥ 10%.

The values above are taken from patent US20230107216A1, “PANTETHEINE DERIVATIVES AND USES THEREOF” (Comet Therapeutics, Inc., priority 2018, published 2023).
